In ChEMBL document CHEMBL3124857, “Encoded library technology as a source of hits for the discovery and lead optimization of a potent and selective class of bactericidal direct inhibitors of Mycobacterium tuberculosis InhA” (J Med Chem, 2014):
Values after ≈ are worked out from the molar mass of the structure shown. Active and inactive are the calls of the source. The calls are words filed in the database; no cut-off is given here.

Assays:
[1] = molecular target: T1, Enoyl-[acyl-carrier-protein] reductase [NADH] (Mycobacterium tuberculosis, UniProt P9WGR1); assay: Inhibition of Mycobacterium tuberculosis full length biotinylated InhA (270 amino acids) using DDCoA as substrate assessed as NADH oxidation by fluorimetric analysis
T1 sequence (P9WGR1 whole entry): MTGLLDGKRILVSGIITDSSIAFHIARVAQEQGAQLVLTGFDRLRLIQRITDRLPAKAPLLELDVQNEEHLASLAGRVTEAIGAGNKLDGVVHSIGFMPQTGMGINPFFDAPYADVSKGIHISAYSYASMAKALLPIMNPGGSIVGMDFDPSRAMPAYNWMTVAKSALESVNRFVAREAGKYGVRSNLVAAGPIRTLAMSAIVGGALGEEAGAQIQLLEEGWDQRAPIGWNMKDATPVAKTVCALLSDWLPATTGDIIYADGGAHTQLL

[2] = tested on: Mycobacterium tuberculosis; assay: Antitubercular activity against wild type Mycobacterium tuberculosis H37Rv ATCC 25618 assessed as growth inhibition after 6 days by resazurin dye-based assay; format: functional; details: for MIC90: H37Rv ATCC 25618, 144 h

| Compound | IC50 [1] [nM] | MIC90 [2] [µM] | growth inhibition (GI) [2] |
| --- | --- | --- | --- |
| CCc1cc(C(=O)N[C@@H]2C[C@@H](C(=O)NCC3CCCO3)N(C(=O)c3coc4ccccc34)C2)n(C)n1 (some centres not stated) | 45 | 4 (≈ 1.97 µg/mL) | – |
| CCc1cc(C(=O)N[C@@H]2C[C@@H](C(=O)Nc3ccn(CC4CCCCC4)n3)N(C(=O)c3coc4ccccc34)C2)n(C)n1 | > 1000 | > 31 | – |
| CCc1cc(C(=O)N[C@@H]2C[C@@H](C(=O)NCc3ccc(F)c(F)c3)N(C(=O)c3coc4ccccc34)C2)n(C)n1 | 9 | 2 (≈ 1.07 µg/mL) | – |
| CCc1cc(C(=O)N[C@@H]2C[C@@H](C(=O)Nc3cnn(CC)n3)N(C(=O)c3coc4ccccc34)C2)n(C)n1 | 3 | 4 (≈ 2.02 µg/mL) | – |
| CCc1cc(C(=O)N[C@@H]2C[C@@H](C(=O)NCc3nc(C)no3)N(C(=O)c3coc4ccccc34)C2)n(CC)n1 | 4 | 0.5 (≈ 0.26 µg/mL) | – |
| CCc1cc(C(=O)N[C@@H]2C[C@@H](C(=O)Nc3cc(C)on3)N(C(=O)c3coc4ccccc34)C2)n(C)n1 | 18 | 16 (≈ 7.85 µg/mL) | – |
| CCc1cc(C(=O)N[C@@H]2C[C@@H](C(=O)NCCOC)N(C(=O)c3coc4ccccc34)C2)n(C)n1 | 14 | 4 (≈ 1.87 µg/mL) | – |
| CCc1cc(C(=O)N[C@@H]2C[C@@H](C(=O)NCC(=O)OC)N(C(=O)c3coc4ccccc34)C2)n(Cc2ccccc2)n1 | > 1000 | > 31 | – |
| CCc1cc(C(=O)N[C@@H]2C[C@@H](C(=O)NCC(N)=O)N(C(=O)c3coc4ccccc34)C2)n(C)n1 | – | – | Active |
| CCc1cc(C(=O)N[C@@H]2C[C@@H](C(=O)NCC(=O)OC)N(C(=O)c3coc4ccccc34)C2)n(CC)n1 | 3 | 0.05 (≈ 0.0248 µg/mL) | – |
| CCNC[C@@H]1C[C@@H](NC(=O)c2cc(CC)nn2C)CN1C(=O)c1coc2ccccc12 | 440 | > 31 | – |
| CCc1cc(C(=O)N[C@@H]2C[C@@H](C(N)=O)N(C(=O)c3coc4ccccc34)C2)n(C)n1 | 12 | 3 (≈ 1.23 µg/mL) | – |
| CCc1cc(C(=O)N[C@@H]2C[C@@H](C(=O)NCC(=O)N(C)C)N(C(=O)c3coc4ccccc34)C2)n(C)n1 | – | – | Active |
| CCc1cc(C(=O)N[C@@H]2C[C@@H](C(=O)O)N(C(=O)c3coc4ccccc34)C2)n(C)n1 | 1290 | – | – |
| CCc1cc(C(=O)N[C@@H]2C[C@@H](C(=O)Nc3nc(C)co3)N(C(=O)c3coc4ccccc34)C2)n(C)n1 | 9 | 8 (≈ 3.92 µg/mL) | – |
| CCc1cc(C(=O)N[C@@H]2C[C@@H](C(=O)Nc3ccn(Cc4ccc(F)cc4)n3)N(C(=O)c3coc4ccccc34)C2)n(C)n1 | 5 | 4 (≈ 2.33 µg/mL) | – |
| CCc1cc(C(=O)N[C@@H]2C[C@@H](C(=O)Nc3ccccn3)N(C(=O)c3coc4ccccc34)C2)n(C)n1 | 11 | 4 (≈ 1.95 µg/mL) | – |
| CCc1cc(C(=O)N[C@@H]2C[C@@H](C(=O)NCCO)N(C(=O)c3coc4ccccc34)C2)n(CC)n1 | 3 | 1 (≈ 0.468 µg/mL) | – |
| CCc1cc(C(=O)N[C@@H]2C[C@@H](C(=O)N[C@H](CO)Cc3ccccc3)N(C(=O)c3coc4ccccc34)C2)n(C)n1 | 112 | 1 (≈ 0.544 µg/mL) | – |
| CCc1cc(C(=O)N[C@@H]2C[C@@H](C(=O)N(CC)CC)N(C(=O)c3coc4ccccc34)C2)n(C)n1 | 948 | > 31 | – |
| CCc1cc(C(=O)N[C@@H]2CCN(C(=O)c3coc4ccccc34)C2)n(C)n1 | 120 | > 31 | – |
| CCCNC(=O)[C@@H]1C[C@@H](NC(=O)c2cc(CC)nn2C)CN1C(=O)c1coc2ccccc12 | 21 | 15.6 (≈ 7.04 µg/mL) | – |
| CCc1cc(C(=O)N[C@@H]2C[C@@H](C(=O)NCCc3ccccn3)N(C(=O)c3coc4ccccc34)C2)n(CC)n1 | 4 | 0.5 (≈ 0.264 µg/mL) | – |
| CCc1cc(C(=O)N[C@@H]2C[C@@H](C(=O)NCc3ccn(CC)n3)N(C(=O)c3coc4ccccc34)C2)n(C)n1 | 32 | 4 (≈ 2.07 µg/mL) | – |
| CCc1cc(C(=O)N[C@@H]2C[C@@H](C(=O)NCc3nc(C)no3)N(C(=O)c3coc4ccccc34)C2)n(C)n1 | 7 | 2 (≈ 1.01 µg/mL) | – |
| CCc1cc(C(=O)N[C@@H]2C[C@@H](C(=O)NC3CCOC3=O)N(C(=O)c3coc4ccccc34)C2)n(C)n1 (some centres not stated) | 80 | > 31 | – |

| Compound | IC50 [1] [nM] | MIC90 [2] [µM] | growth inhibition (GI) [2] |
| --- | --- | --- | --- |
| CCc1cc(C(=O)N[C@@H]2C[C@@H](C(=O)NCc3ccc(C(F)(F)F)cc3)N(C(=O)c3coc4ccccc34)C2)n(C)n1 | 42 | 16 (≈ 9.08 µg/mL) | – |
| CCNC(=O)[C@@H]1C[C@@H](NC(=O)c2cc(CC)nn2C)CN1C(=O)c1ccc2occc2c1 | 74 | – | – |
| COC(=O)CNC(=O)[C@@H]1C[C@@H](NC(=O)c2cc(CC(C)C)nn2C)CN1C(=O)c1coc2ccccc12 | > 1000 | > 31 | – |
| CCc1cc(C(=O)N[C@@H]2C[C@@H](C(=O)NC3CCCC3)N(C(=O)c3coc4ccccc34)C2)n(C)n1 | 40 | 4 (≈ 1.91 µg/mL) | – |
| CCc1cc(C(=O)N[C@@H]2C[C@@H](C(=O)NCc3ccc(OC(F)(F)F)cc3)N(C(=O)c3coc4ccccc34)C2)n(C)n1 | 5 | 23.4 (≈ 13.7 µg/mL) | – |
| CCc1cc(C(=O)N[C@@H]2C[C@@H](C(=O)NCCNC(C)=O)N(C(=O)c3coc4ccccc34)C2)n(C)n1 | 20 | 4 (≈ 1.98 µg/mL) | – |
| CCc1cc(C(=O)N[C@@H]2C[C@@H](C(=O)OC)N(C(=O)c3coc4ccccc34)C2)n(C)n1 | 215 | – | – |
| CCCn1nc(CC)cc1C(=O)N[C@@H]1C[C@@H](C(=O)NCC(=O)OC)N(C(=O)c2coc3ccccc23)C1 | 11 | 1 (≈ 0.51 µg/mL) | – |
| CCc1cc(C(=O)N[C@@H]2C[C@@H](C(=O)NCCc3ccc(F)cc3)N(C(=O)c3coc4ccccc34)C2)n(C)n1 | 6 | 1 (≈ 0.532 µg/mL) | – |
| CCc1cc(C(=O)N[C@@H]2C[C@@H](C(=O)NCC(=O)NC)N(C(=O)c3coc4ccccc34)C2)n(C)n1 | – | – | Active |
| CCc1cc(C(=O)N[C@@H]2C[C@@H](C(=O)NCC(F)(F)F)N(C(=O)c3coc4ccccc34)C2)n(C)n1 | 46 | 4 (≈ 1.97 µg/mL) | – |
| CCc1cc(C(=O)N[C@@H]2C[C@@H](C(=O)NCc3ccc4c(c3)B(O)OC4)N(C(=O)c3coc4ccccc34)C2)n(CC)n1 | 2 | 0.2 (≈ 0.114 µg/mL) | – |
| CCc1cc(C(=O)N[C@@H]2C[C@@H](C(=O)NCC(=O)OC)N(C(=O)c3coc4ccccc34)C2)n(CCO)n1 | > 1000 | > 31 | – |
| CCc1cc(C(=O)N[C@@H]2C[C@@H](C(=O)NCc3ccccn3)N(C(=O)c3coc4ccccc34)C2)n(CC)n1 | 2 | 0.7 (≈ 0.36 µg/mL) | – |
| CCNC(=O)[C@@H]1C[C@@H](NC(=O)c2cc(CC)nn2C)CN1C(=O)c1ccc2sccc2c1 | 121 | – | – |
| CCc1cc(C(=O)N[C@@H]2C[C@@H](C(=O)NCc3nccs3)N(C(=O)c3coc4ccccc34)C2)n(C)n1 | 17 | 2 (≈ 1.01 µg/mL) | – |
| CCc1cc(C(=O)N[C@@H]2C[C@@H](C(=O)NCc3ccc(C)o3)N(C(=O)c3coc4ccccc34)C2)n(C)n1 | 21 | 1.5 (≈ 0.755 µg/mL) | – |
| CCc1cc(C(=O)N[C@@H]2C[C@@H](C(=O)Nc3ccc4c(c3)B(O)OC4)N(C(=O)c3coc4ccccc34)C2)n(C)n1 | 26 | 4 (≈ 2.17 µg/mL) | – |
| CCc1cc(C(=O)N[C@@H]2C[C@@H](C(=O)NCc3nc4ccccc4o3)N(C(=O)c3coc4ccccc34)C2)n(C)n1 | 3 | 0.5 (≈ 0.27 µg/mL) | – |
| CCc1cc(C(=O)N[C@@H]2C[C@@H](C(=O)NCc3ncco3)N(C(=O)c3coc4ccccc34)C2)n(C)n1 | 5 | 1 (≈ 0.491 µg/mL) | – |
| CCCc1cc(C(=O)N[C@@H]2C[C@@H](C(=O)NCC(=O)OC)N(C(=O)c3coc4ccccc34)C2)n(C)n1 | 22 | 0.5 (≈ 0.248 µg/mL) | – |
| CCc1cc(C(=O)N[C@@H]2C[C@@H](C(=O)NCCN(C)C)N(C(=O)c3coc4ccccc34)C2)n(C)n1 | 170 | > 31 | – |
| CCc1cc(C(=O)N[C@@H]2C[C@@H](C(=O)NCC3OB(O)c4ccccc43)N(C(=O)c3coc4ccccc34)C2)n(C)n1 (some centres not stated) | 35 | 2 (≈ 1.11 µg/mL) | – |
| CCc1cc(C(=O)N[C@@H]2C[C@@H](C(=O)NCCc3ccccn3)N(C(=O)c3coc4ccccc34)C2)n(C)n1 | 25 | 1 (≈ 0.515 µg/mL) | – |
| CCOC(=O)CCNC(=O)[C@@H]1C[C@@H](NC(=O)c2cc(CC)nn2C)CN1C(=O)c1coc2ccccc12 | 22 | 4 (≈ 2.04 µg/mL) | – |
| CCc1cc(C(=O)N[C@@H]2C[C@@H](C(=O)Nc3ccn(Cc4c(F)cccc4F)n3)N(C(=O)c3coc4ccccc34)C2)n(C)n1 | 4 | 0.7 (≈ 0.421 µg/mL) | – |
